# Measurements reported in patent US20240000741A1, “ALL-TRANS RETINOIC ACID ENHANCES RADIOTHERAPY AND OVERCOMES IMMUNE SUPPRESSION FOR CANCER THERAPY” (The University of Chicago, priority 2022, published 2024).
# Tests used:
# [1] = test system: immune cells in non-irradiated tumors; assay: Flow cytometric analysis of non-irradiated tumors in the two-tumor model; format: in vivo, mouse
# Text: Single cell suspensions were obtained as previously described (40). Cells were blocked with anti-Fc receptor (2.4 G2, BioXCell, Lebanon, New Hampshire, United States of America) and stained for live/dead with Zombie UV, followed staining using antibodies against CD45, CD4, CD8, NK1.1, CD11b, CD11c, Ly6C, Ly6G, F4/80, CD44, CD62L.
# More CD8^+ T and CD4^+ T cells were also observed in the non-irradiated tumors when primary tumors received IR+RA treatment.
# [2] = test system: bone marrow-derived DCs (BMDCs); assay: iNOS induction in bone marrow-derived dendritic cells in vitro; format: cell-based, mouse; conditions: cultured in the presence of RA (200 μM)
# Protocol: Femurs and tibias from 8- to 10-week-old mice were harvested. BMDCs were derived as described (40). The cultured BMDC were collected on day 6 for further experiments. For Inf-MAC induction in vitro, bone marrow cells were cocultured with the presence of 200 μM RA. On day 6, indicated amount of IFN-γ was added directly to the culture. Cells were stained for iNOS and TNF-α after 24-36 hours and analyzed using flow cytometry.
# [3] = test system: MC38 cells; assay: Tumor re-challenge of cured mice with MC38 cells; format: in vivo, mouse; conditions: mice cured by IR+RA, re-challenged with 5×10^6 MC38 cells
# Protocol: 1×10^6 MC38, B16/F1, Renca or CT26 cells were subcutaneously implanted into flanks of mice. Tumors were irradiated using a Phillips IR250 orthovoltage X-ray generator (Phillips, Amsterdam, the Netherlands) operating at 250 kV 15 mA. Subcutaneous local tumors were irradiated by shielding bodies with a cylindrical lead cover with only flank tumors exposed for radiation. ATRA (400 μg/mice/day) was administered by oral gavage for 10 days. For the two-tumor model, 1×10^6 and 0.7×10^6 MC38 cells were subcutaneously implanted into the right and left flank of mice respectively. For the tumor re-challenge assay, both the cured mice and the naive mice were re-challenged with 5×10^6 MC38 or 1×10^6 LLC cells respectively. Tumors were measured along two diameters (length and width) and depth twice weekly and volumes were calculated as length×width×depth/2. For CD8 and CD4 T cell depletion experiments, 200 μg antibodies were injected i.p. on day 0, 2, 5 and 8 after radiation. Anti-CD11b antibody was injected i.p. every two days starting 1 day before radiation. Anti-PD-L1 antibody was administered i.p. on day 0, 3, and 7 after radiation at 200 μg/mouse. Anti-IFN-γ was administered i.p. at 500 μg/mouse every 7 days. Anti-NK1.1 antibody was administered via i.p. at 25 μg/mouse every 3 days for 3 doses. Anti-GM-CSF antibody was given by i.p. injection at 250 μg/mouse every 2 days. […]
# [4] = 8 days after IR+RA combination treatment
compound,measurement,setting,value
"CC1=C(/C=C/C(C)=C/C=C/C(C)=C/C(=O)O)C(C)(C)CCC1 [RA, all-trans retinoic acid]",PD-L1 expression on DCs in non-irradiated tumors,[1]; 3 days post IR+RA treatment,Increased
same,PD-L1 expression on tumor cells in non-irradiated tumors,[1]; 3 days post IR+RA treatment,Increased
same,CD11c+iNOS+ cells in non-irradiated tumor,[1]; [4],increased
same,proportion of CD11b+ cells in non-irradiated tumors,[1]; [4],significantly increased proportion
same,proportion of CD11b+CD11c+Ly6C+ cells in non-irradiated tumors,[1]; [4],significantly increased proportion
same,CD4+ T cells in non-irradiated tumors,[1]; primary tumors received IR+RA,More
same,CD8+ T cells in non-irradiated tumors,[1]; primary tumors received IR+RA,More
same,Foxp3+CD4+ T cells in non-irradiated tumors,[1]; primary tumors received IR+RA,marked decrease
same,proportion of CD4+ IFN-γ+ cells in non-irradiated tumors,[1]; primary tumors received IR+RA,increased
same,proportion of CD8+ IFN-γ+ cells in non-irradiated tumors,[1]; primary tumors received IR+RA,increased
same,proportion of CD8+GzmB+ cells in non-irradiated tumors,[1]; primary tumors received IR+RA,increased
same,iNOS production in BMDCs,[2],increased significantly
same,tumor formation after re-challenge with MC38 cells,[3],did not form tumors
